Experimental data published in ChEMBL document CHEMBL1201862, “PubChem BioAssay data set” (2004).
Calls of active or inactive are those of the source.

How the values were obtained:
[1] = molecular target: T1, Type-1 angiotensin II receptor (Homo sapiens, UniProt P30556); assay: agonist activity at AGTR1 – cell-based, uHTS hits, selectivity assay for APJ receptor agonist project, dose response (AID 488865); type: functional;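 note: beta-arrestin recruitment to AT1 measured by enzyme fragment complementation luminescence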
T1 sequence (P30556 whole entry): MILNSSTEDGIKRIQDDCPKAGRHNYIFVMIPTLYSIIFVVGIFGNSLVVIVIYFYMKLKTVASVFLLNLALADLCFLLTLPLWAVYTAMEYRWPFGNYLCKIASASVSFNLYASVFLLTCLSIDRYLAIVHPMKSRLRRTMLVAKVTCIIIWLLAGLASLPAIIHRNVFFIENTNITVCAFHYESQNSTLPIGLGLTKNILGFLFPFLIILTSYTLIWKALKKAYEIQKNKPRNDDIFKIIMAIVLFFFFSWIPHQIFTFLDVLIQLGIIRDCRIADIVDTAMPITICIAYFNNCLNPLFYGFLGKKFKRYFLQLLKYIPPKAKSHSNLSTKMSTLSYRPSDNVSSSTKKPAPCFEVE

[2] = molecular target: T2, Runt-related transcription factor 1/Core-binding factor subunit beta (Homo sapiens, UniProt Q01196+Q13951); assay: disruptors of Runt domain/CBFb-SMMHC interaction – biochemical, FRET, Cerulean-Runt, Venus-CBFb-SMMHC, uHTS, […] (AID 1434); type: protein assay
T2 sequence (Q01196 whole entry, the tested form may be a part): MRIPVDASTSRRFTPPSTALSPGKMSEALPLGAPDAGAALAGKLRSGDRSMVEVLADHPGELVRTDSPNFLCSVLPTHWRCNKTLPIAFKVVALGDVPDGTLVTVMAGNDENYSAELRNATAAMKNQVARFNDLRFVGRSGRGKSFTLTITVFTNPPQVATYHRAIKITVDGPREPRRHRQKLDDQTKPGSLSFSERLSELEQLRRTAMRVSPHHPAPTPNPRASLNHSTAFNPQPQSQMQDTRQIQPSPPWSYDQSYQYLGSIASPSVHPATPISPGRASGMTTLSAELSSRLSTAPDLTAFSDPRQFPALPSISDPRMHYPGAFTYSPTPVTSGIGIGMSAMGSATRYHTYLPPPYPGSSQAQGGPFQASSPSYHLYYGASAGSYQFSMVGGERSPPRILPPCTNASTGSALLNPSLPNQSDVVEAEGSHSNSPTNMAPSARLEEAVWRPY
T2 sequence (Q13951 whole entry, the tested form may be a part): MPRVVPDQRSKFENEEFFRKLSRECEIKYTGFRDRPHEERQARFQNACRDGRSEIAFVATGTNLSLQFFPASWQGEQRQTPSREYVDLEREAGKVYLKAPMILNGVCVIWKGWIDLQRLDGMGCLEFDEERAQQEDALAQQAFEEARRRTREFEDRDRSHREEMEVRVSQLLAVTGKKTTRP

[3] = molecular target: T2, Runt-related transcription factor 1/Core-binding factor subunit beta; assay: Runt domain/CBFb-SMMHC interaction disruptors – biochemical, TR-FRET (AID 1438); type: protein assay
[4] = molecular target: T3, G-protein coupled receptor 55 (Homo sapiens, UniProt Q9Y2T6); assay: inhibition of LPI-stimulated GPR55 beta-arrestin translocation – imaging, U2OS, beta-arrestin-GFP, LPI agonist, primary screen (AID 2013); type: functional;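 note: antagonist potency measured as reduced agonist-driven arrestin aggregation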
T3 sequence (Q9Y2T6 whole entry): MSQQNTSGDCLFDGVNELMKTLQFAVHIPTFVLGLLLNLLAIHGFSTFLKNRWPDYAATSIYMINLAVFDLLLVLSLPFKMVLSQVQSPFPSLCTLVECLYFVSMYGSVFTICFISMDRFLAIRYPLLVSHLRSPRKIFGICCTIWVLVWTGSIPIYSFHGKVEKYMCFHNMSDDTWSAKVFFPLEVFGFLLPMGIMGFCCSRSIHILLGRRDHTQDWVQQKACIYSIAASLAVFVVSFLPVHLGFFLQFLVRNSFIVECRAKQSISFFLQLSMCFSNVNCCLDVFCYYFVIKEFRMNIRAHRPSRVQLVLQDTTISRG

Cannabinoid receptor 1 [5] = molecular target: T4, Cannabinoid receptor 1 (Homo sapiens, UniProt P21554); assay: SAR analysis of antagonists of the Cannabinoid Receptor 1 using an Image-Based Assay - Set 2. [Related pubchem assays (depositor defined):AID2013, AID2026]; type: functional
T4 sequence (P21554 whole entry): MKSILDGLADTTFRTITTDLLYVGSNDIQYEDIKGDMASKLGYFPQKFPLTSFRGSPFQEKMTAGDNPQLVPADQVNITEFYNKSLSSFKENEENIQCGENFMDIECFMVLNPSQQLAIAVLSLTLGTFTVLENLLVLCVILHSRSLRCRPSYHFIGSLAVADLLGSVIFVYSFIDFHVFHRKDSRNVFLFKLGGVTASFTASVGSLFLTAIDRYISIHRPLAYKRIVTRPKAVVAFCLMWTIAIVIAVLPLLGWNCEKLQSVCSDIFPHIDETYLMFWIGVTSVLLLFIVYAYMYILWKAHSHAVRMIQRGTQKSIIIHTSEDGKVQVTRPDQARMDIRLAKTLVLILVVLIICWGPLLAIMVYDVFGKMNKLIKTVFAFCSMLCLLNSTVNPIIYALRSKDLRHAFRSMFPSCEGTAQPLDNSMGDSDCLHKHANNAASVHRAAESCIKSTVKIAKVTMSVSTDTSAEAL

[6] = molecular target: T5, G-protein coupled receptor 35 (Homo sapiens, UniProt Q9HC97); assay: SAR analysis of Agonists of the GPR35 Receptor using an Image-Based Assay - Set 2. [Related pubchem assays (depositor defined):AID2013, AID2026]; type: functional
T5 sequence (Q9HC97 whole entry): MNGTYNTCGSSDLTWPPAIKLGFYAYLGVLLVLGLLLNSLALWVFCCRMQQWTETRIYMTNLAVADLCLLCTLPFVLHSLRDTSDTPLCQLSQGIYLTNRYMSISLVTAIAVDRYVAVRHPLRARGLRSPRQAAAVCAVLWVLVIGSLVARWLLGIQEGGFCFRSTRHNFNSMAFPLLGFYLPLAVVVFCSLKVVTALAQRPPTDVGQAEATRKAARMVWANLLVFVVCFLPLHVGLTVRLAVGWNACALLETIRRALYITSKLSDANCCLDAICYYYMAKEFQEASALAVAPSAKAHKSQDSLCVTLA

Cannabinoid receptor 2 [7] = molecular target: T6, Cannabinoid receptor 2 (Homo sapiens, UniProt P34972); assay: SAR analysis of antagonists of the Cannabinoid Receptor 2 using an Image-Based Assay. [Related pubchem assays (depositor defined):AID2013, AID2026]; type: functional
T6 sequence (P34972 whole entry): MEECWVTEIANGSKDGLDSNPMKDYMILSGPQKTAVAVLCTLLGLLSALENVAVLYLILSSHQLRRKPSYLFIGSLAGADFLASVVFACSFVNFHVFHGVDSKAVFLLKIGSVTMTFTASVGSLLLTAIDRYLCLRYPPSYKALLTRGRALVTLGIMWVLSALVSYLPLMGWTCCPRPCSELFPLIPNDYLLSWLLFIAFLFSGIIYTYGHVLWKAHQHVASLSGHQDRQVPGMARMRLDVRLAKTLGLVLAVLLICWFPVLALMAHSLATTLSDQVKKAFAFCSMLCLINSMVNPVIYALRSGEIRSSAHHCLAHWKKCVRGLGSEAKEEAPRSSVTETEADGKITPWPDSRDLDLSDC

Cannabinoid receptor 1 [8] = molecular target: T4, Cannabinoid receptor 1; assay: SAR analysis of agonists of the Cannabinoid Receptor 1 using an Image-Based Assay - Set 2. [Related pubchem assays (depositor defined):AID2013, AID2026]; type: functional
[9] = molecular target: T5, G-protein coupled receptor 35; assay: SAR analysis of Antagonists of the GPR35 Receptor using an Image-Based Assay - Set 3. [Related pubchem assays (depositor defined):AID2013, AID2026]; type: functional
[10] = molecular target: T3, G-protein coupled receptor 55; assay: blockade of LPI-induced GPR55 arrestin translocation – imaging, U2OS, beta-arrestin-GFP, LPI agonist, set 2, SAR follow-up (AID 2820); type: functional
Cannabinoid receptor 2 [11] = molecular target: T6, Cannabinoid receptor 2; assay: SAR analysis of agonists of the Cannabinoid Receptor 2 using an Image-Based Assay. [Related pubchem assays (depositor defined):AID2013, AID2026]; type: functional
[12] = molecular target: T5, G-protein coupled receptor 35; assay: SAR analysis of Agonists of the GPR35 Receptor using an Image-Based Assay - Set 4. [Related pubchem assays (depositor defined):AID2013, AID2026]; type: functional
Cannabinoid receptor 1 [13] = molecular target: T4, Cannabinoid receptor 1; assay: SAR analysis of agonists of the Cannabinoid Receptor 1 using an Image-Based Assay - Set 4. [Related pubchem assays (depositor defined):AID2013, AID2026]; type: functional
[14] = molecular target: T5, G-protein coupled receptor 35; assay: SAR analysis of Antagonists of the GPR35 Receptor using an Image-Based Assay - Set 6. [Related pubchem assays (depositor defined):AID2013, AID2026]; type: functional
Cannabinoid receptor 1 [15] = molecular target: T4, Cannabinoid receptor 1; assay: SAR analysis of antagonists of the Cannabinoid Receptor 1 using an Image-Based Assay - Set 4. [Related pubchem assays (depositor defined):AID2013, AID2026]; type: functional
[16] = molecular target: T3, G-protein coupled receptor 55; assay: SAR Analysis of Selective Antagonists of GPR55 using an Image-Based Assay - Set 4. [Related pubchem assays (depositor defined):AID2013, AID2026]; type: functional
Cannabinoid receptor 2 [17] = molecular target: T6, Cannabinoid receptor 2; assay: SAR analysis of antagonists of the Cannabinoid Receptor 2 using an Image-Based Assay - Set 3. [Related pubchem assays (depositor defined):AID2013, AID2026]; type: functional
Cannabinoid receptor 2 [18] = molecular target: T6, Cannabinoid receptor 2; assay: SAR analysis of agonists of the Cannabinoid Receptor 2 using an Image-Based Assay - Set 3. [Related pubchem assays (depositor defined):AID2013, AID2026]; type: functional
[19] = molecular target: Signal transducer and activator of transcription 3 (Homo sapiens, UniProt P40763); assay: STAT3 blockade with qPCR and toxicity readouts – cell-based, STAT1 panel, cytotoxicity, late-stage follow-up, panel member STAT3 Inhibition (AID 2078)
Sequence of Signal transducer and activator of transcription 3 (P40763 whole entry): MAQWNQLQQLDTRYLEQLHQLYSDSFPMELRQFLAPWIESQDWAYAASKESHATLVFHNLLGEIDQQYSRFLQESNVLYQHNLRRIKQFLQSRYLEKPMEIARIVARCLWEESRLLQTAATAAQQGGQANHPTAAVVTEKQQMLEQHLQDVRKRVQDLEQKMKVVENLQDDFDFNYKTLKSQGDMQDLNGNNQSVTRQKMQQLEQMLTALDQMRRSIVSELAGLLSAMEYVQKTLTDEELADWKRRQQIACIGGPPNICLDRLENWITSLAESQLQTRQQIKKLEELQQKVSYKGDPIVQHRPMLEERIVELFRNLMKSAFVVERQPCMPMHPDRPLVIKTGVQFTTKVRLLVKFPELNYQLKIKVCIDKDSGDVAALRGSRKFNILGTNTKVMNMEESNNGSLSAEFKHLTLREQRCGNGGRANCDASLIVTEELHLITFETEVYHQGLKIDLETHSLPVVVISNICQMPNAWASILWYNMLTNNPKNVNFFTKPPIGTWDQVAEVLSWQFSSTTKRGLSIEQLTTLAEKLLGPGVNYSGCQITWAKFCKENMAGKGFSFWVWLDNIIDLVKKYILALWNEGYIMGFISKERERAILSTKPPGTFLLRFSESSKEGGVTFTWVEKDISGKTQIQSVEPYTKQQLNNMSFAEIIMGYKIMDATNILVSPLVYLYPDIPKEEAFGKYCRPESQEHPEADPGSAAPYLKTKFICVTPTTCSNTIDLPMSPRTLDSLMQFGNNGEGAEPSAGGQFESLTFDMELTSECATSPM

[20] = molecular target: Signal transducer and activator of transcription 1-alpha/beta (Homo sapiens, UniProt P42224); assay: STAT3 blockade with qPCR and toxicity readouts – cell-based, STAT1 panel, cytotoxicity, late-stage follow-up, panel member STAT1 Inhibition (AID 2078)
[21] = molecular target: Sphingosine 1-phosphate receptor 5 (Homo sapiens, UniProt Q9H228); assay: (§1) Late-stage fluorescence-based dose-response cell-based assay to identify agonists of the Sphingosine 1-Phosphate Receptor 4 (S1P4): Sphingosine 1-Phosphate Receptor 5 (S1P5) counterscreen assay. [Related pubchem assays (depositor defined):AID1509, AID1523, AID1563, AID1686, AID1701, AID1801, AID463107, AID463225, AID504400]; type: functional
Sequence of Sphingosine 1-phosphate receptor 5 (Q9H228 whole entry): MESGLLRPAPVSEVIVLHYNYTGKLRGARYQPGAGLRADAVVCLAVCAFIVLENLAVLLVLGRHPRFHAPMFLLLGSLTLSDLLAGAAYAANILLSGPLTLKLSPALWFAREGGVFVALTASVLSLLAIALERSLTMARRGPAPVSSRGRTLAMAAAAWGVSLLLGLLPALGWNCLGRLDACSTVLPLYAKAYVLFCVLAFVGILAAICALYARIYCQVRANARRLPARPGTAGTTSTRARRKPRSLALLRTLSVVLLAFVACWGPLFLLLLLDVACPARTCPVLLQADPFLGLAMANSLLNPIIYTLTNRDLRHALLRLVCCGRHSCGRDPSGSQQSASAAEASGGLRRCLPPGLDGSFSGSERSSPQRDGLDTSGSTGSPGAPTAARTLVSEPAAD

[22] = molecular target: Sphingosine 1-phosphate receptor 1 (Homo sapiens, UniProt P21453); assay: as §1, with “1 (S1P1)” for “5 (S1P5)”; type: functional
Sequence of Sphingosine 1-phosphate receptor 1 (P21453 whole entry): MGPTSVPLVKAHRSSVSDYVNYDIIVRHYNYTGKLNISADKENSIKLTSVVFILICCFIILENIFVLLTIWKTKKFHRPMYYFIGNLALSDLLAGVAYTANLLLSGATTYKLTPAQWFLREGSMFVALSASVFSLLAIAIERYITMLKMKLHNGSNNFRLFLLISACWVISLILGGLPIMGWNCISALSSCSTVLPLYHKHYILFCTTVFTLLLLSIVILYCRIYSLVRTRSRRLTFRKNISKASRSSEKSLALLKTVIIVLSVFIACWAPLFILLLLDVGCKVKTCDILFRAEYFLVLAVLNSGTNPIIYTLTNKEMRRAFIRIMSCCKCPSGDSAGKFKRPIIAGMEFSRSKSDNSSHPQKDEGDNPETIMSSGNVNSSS

[23] = molecular target: Sphingosine 1-phosphate receptor 2 (Homo sapiens, UniProt O95136); assay: as §1, with “2 (S1P2)” for “5 (S1P5)”; type: functional
Sequence of Sphingosine 1-phosphate receptor 2 (O95136 whole entry): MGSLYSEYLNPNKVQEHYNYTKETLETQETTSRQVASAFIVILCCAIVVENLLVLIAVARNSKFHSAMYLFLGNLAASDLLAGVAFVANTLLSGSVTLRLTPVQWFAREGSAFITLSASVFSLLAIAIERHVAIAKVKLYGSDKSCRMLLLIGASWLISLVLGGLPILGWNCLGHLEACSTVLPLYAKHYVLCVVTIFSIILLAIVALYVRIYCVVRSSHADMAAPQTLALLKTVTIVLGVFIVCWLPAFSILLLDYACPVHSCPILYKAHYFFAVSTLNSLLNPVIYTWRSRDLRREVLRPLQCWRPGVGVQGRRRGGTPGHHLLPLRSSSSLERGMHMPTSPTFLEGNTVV

[24] = molecular target: Sphingosine 1-phosphate receptor 3 (Homo sapiens, UniProt Q99500); assay: as §1, with “3 (S1P3)” for “5 (S1P5)”; type: functional
Sequence of Sphingosine 1-phosphate receptor 3 (Q99500 whole entry): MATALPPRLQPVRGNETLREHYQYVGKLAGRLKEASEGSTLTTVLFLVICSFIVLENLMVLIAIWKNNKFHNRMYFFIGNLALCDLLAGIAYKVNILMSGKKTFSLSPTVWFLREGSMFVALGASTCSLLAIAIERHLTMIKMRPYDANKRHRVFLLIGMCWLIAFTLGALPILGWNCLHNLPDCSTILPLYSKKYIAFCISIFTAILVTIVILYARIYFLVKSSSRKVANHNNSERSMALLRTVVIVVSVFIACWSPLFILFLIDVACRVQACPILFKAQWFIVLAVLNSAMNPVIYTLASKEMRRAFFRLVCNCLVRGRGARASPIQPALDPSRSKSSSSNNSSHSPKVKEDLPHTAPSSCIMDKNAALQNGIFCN

[25] = molecular target: Tyrosine-protein phosphatase non-receptor type 12 (Homo sapiens, UniProt Q05209); assay: SAR Selectivity Analysis of small molecule inhibitors of PEST using pCAP in a fluorescence assay. [Related pubchem assays (depositor defined):AID1779, AID1784, AID2135]; type: functional
[26] = molecular target: T7, Tyrosine-protein phosphatase non-receptor type 22 (Homo sapiens, UniProt Q9Y2R2); assay: SAR LYP1 Fluorescent Assay using OMFP substrate for In Vitro dose response studies - Set 3. [Related pubchem assays (depositor defined):AID1779, AID1784, AID2140, AID2686]; type: functional
T7 sequence (Q9Y2R2 whole entry): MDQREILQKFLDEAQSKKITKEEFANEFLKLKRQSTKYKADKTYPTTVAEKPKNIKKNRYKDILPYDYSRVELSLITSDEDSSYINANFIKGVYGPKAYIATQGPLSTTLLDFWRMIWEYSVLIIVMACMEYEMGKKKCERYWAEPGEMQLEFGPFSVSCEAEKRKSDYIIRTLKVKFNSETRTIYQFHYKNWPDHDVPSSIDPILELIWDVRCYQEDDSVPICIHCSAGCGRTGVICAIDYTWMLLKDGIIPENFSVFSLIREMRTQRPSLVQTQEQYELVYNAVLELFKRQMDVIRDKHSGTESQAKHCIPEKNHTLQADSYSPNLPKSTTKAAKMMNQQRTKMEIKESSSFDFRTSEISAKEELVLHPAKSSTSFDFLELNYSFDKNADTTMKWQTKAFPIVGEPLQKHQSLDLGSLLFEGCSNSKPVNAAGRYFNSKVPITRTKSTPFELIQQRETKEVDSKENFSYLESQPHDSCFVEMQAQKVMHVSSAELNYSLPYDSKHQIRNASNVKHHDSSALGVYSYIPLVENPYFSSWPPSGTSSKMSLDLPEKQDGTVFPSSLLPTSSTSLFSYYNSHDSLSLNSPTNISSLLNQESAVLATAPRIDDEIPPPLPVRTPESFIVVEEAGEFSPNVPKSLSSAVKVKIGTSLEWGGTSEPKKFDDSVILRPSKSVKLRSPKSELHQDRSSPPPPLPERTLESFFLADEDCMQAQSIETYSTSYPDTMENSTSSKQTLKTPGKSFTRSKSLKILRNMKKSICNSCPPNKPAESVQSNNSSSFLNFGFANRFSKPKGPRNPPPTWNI

[27] = molecular target: T8, Tyrosine-protein phosphatase non-receptor type 7 (Homo sapiens, UniProt P35236); assay: redox-active compounds inhibiting HePTP phosphatase – biochemical, fluorescence, mechanism study (AID 2068); type: functional
T8 sequence (P35236 whole entry): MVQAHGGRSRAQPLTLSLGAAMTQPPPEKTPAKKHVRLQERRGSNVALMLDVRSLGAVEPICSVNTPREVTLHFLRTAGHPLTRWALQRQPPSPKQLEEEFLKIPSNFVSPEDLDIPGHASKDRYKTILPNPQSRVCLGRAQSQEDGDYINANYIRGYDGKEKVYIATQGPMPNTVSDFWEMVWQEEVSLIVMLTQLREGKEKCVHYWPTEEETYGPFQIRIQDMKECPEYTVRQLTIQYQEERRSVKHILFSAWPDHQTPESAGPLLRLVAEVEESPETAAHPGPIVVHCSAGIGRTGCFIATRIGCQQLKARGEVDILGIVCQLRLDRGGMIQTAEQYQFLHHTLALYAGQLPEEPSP

[28] = molecular target: T8, Tyrosine-protein phosphatase non-receptor type 7; assay: inhibition of hematopoietic tyrosine phosphatase HePTP – biochemical, set 2, SAR follow-up (AID 449736); type: functional
[29] = molecular target: T7, Tyrosine-protein phosphatase non-receptor type 22; assay: inhibition of lymphoid tyrosine phosphatase LYP – biochemical, pCAP fluorogenic substrate, fluorescence, set 3, SAR follow-up (AID 449727); type: functional
[30] = molecular target: Dual specificity protein phosphatase 3 (Homo sapiens, UniProt P51452); assay: SAR VHR1 Fluorescent Assay for In Vitro dose response studies Set 2. [Related pubchem assays (depositor defined):AID1654, AID1661, AID1878]; type: functional
Sequence of Dual specificity protein phosphatase 3 (P51452 whole entry): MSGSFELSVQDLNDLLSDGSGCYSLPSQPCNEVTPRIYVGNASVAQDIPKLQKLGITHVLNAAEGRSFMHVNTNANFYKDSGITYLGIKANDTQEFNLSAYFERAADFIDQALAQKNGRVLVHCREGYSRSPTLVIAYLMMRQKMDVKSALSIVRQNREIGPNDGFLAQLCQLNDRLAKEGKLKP

[31] = molecular target: T9, Dual specificity protein phosphatase 6 (Rattus norvegicus, UniProt Q64346); type: functional;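 note: confirmatory in vitro dose-response testing of MKP-3 inhibition; recombinant His-tagged MKP-3 made in E. coli BL21 with OMFP substrate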
T9 sequence (Q64346 whole entry): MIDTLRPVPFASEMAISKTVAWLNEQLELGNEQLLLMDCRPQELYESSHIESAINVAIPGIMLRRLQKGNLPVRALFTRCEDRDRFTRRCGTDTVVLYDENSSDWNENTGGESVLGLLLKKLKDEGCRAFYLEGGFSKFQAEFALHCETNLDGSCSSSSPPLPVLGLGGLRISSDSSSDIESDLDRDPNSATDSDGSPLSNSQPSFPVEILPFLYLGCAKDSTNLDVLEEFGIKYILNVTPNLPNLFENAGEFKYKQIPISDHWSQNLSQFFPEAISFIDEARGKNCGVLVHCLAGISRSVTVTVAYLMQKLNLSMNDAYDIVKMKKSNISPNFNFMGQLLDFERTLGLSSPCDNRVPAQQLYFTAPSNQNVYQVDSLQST

SMILES: COc1cc(NC(=S)NC(=O)CCc2ccccc2)cc(OC)c1
- EC50 [1]: > 100 µM (inactive)

SMILES: CCc1nnc(NC(=O)c2sc3nc4c(cc3c2N)CCCCC4)s1
- IC50 [2]: 26.5 µM (active)
- IC50 [3]: 16.6 µM (active)

SMILES: O=C(N1CCC(n2nc(-c3ccccc3)oc2=O)CC1)C1(c2ccc(Cl)cc2)CC1
- IC50 [4]: 0.68 µM (active)
- IC50 (Cannabinoid receptor 1 [5]): 9.6 µM (active)
- EC50 [6]: > 32 µM (inactive)
- IC50 (Cannabinoid receptor 2 [7]): > 32 µM (inactive)
- EC50 (Cannabinoid receptor 1 [8]): > 32 µM (inactive)
- IC50 [9]: > 32 µM (inactive)
- IC50 [10]: 0.76 µM (active)
- EC50 (Cannabinoid receptor 2 [11]): > 32 µM (inactive)

SMILES: Cc1nc(N2CCN(C(=O)C(C)C)CC2)c2c3c(sc2n1)CCCC3
- EC50 [12]: > 32 µM (inactive)
- EC50 (Cannabinoid receptor 1 [13]): > 32 µM (inactive)
- IC50 [14]: > 32 µM (inactive)
- IC50 (Cannabinoid receptor 1 [15]): 14.7 µM (inactive)
- IC50 [16]: 22.7 µM (inactive)
- IC50 (Cannabinoid receptor 2 [17]): > 32 µM (inactive)
- EC50 (Cannabinoid receptor 2 [18]): > 32 µM (inactive)

SMILES: Cc1nc(N2CCC(C(O)c3ccccc3)CC2)c2c3c(sc2n1)CCCC3 (stereo unspecified)
- IC50 [19]: > 55.7 µM (inactive)
- IC50 [20]: > 55.7 µM (inactive)

SMILES: Cc1ccc(OCCOc2ccc(Cl)cc2Cl)c(Br)n1
- EC50 [21]: > 50 µM (inactive)
- EC50 [22]: > 50 µM (inactive)
- EC50 [23]: > 50 µM (inactive)
- EC50 [24]: > 50 µM (inactive)

SMILES: COC(=O)COc1ccc(/C=C2\SC(=Nc3ccc(F)cc3)NC2=O)cc1
- IC50 [25]: 0.975 µM (active)
- IC50 [26]: 3.49 µM (active)
- IC50 [27]: 1.07 µM (active)
- IC50 [28]: 1.58 µM (active)
- IC50 [29]: 3.39 µM (active)
- IC50 [30]: 2.49 µM (active)
- IC50 [31]: 50.7 µM (active)
